# Test system: iPSCs
# Test: ZO-1 immunocytochemical staining, efficiency of direct differentiation of iPSCs into CECs
# Type: cell-based, human
# Settings: concluded from culture media that omit the constituent (Examples 3-4 to 3-7)
# Description: To compare the effect on differentiation efficiency using ZO-1 marker staining of iPSC-derived CECs, CECs were fixed in 4% paraformaldehyde for 30 minutes, washed with PBS buffer, permeabilized with 0.5% Triton X-100, and blocked in PBST containing 1% bovine serum albumin (Sigma-Aldrich). […] Nuclei were counterstained for 10 minutes with 4′,6-diamidino-2-phenylindole (DAPI; Sigma-Aldrich), and fluorescence signals were detected using a laser scanning confocal microscope (Olympus, Tokyo, Japan) or a fluorescence microscope (EVOS, Life Technologies).
row,SMILES,role of the constituent in direct differentiation from iPSCs into CECs
1,"Cc1cncc2cccc(S(=O)(=O)N3CCCNC[C@@H]3C)c12 [Example H-1152, (2S)-2-methyl-1-[(4-methyl-5-isoquinolinyl)sulfonyl]hexahydro-1H-1,4-diazepine]",important
2,"NC(=O)c1ccc(-c2nc(-c3ccc4c(c3)OCO4)c(-c3ccccn3)[nH]2)cc1 [SB431542, 4-[4-(2H-1,3-benzodioxol-5-yl)-5-(pyridin-2-yl)-1H-imidazol-2-yl]benzamide]",important
3,"O=S(=O)(c1cccc2cnccc12)N1CCCNCC1 [Fasudil, fasudil]",important

# Source: patent publication US20260286295A1, “COMPOSITION FOR INDUCING DIRECT DIFFERENTIATION OF STEM CELLS INTO CORNEAL ENDOTHELIAL CELLS AND METHOD FOR INDUCING DIRECT DIFFERENTIATION USING SAME” (THE ASAN FOUNDATION, priority 2023, published 2026)
